Results as given in PubChem BioAssay AID179 (DTP/NCI, 2004).
pEC50, pIC50: −log10 of the molar value. Activity calls are given as the source filed them.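 Rule for the calls: active = compounds giving half or more protection of infected cells from virus-caused growth loss, again on retest; inactive = the rest.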 Where a SMILES comes first, the peptide text is derived from it. The star is where a group is joined. Cbz = O=C(OCc1ccccc1)*; Boc = CC(C)(C)OC(=O)*; Bn = c1ccc(C*)cc1

System: CEM cells HIV-1 protection, formazan growth assay
Test: NCI AIDS Antiviral Assay
Conditions: for pIC50: measured here: growth of uninfected CEM cells
Summary of the method: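 Steps: treat uninfected and HIV-1-infected human CEM cells at five drug levels; quantify growth by soluble formazan; retest any compound reaching 50% protection; classify actives from the retest.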

Structure (SMILES)	pEC50	pIC50	outcome
O=c1[nH]c(CCc2ccccc2)nc2ccccc12	< 5.10	< 5.10	
COC(=S)C12CC3CC(CC(C3)C1)C2			inactive
CC(C)(C)OC(=O)NCCNC(=O)CN(CC(=O)O)C1CCCCC1N(CC(=O)O)CC(=O)O (stereo not drawn)	< 3.70	3.77	
O=C(/C=C/c1ccccc1)CC(=O)c1ccccc1.O=C(/C=C/c1ccccc1)CC(=O)c1ccccc1.[Cu]	< 3.70	4.02	
COc1cc(-c2oc3c(Cl)cc(Cl)cc3c(=O)c2O)cc(OC)c1OC	< 3.70	4.42	
Cc1nnc2n1N=C(c1ccc(O)c(O)c1O)CS2	< 3.70	4.69	
COc1cccc(CN2CCCN(/N=C/c3c4c(O)c5c(O)c(C)c6c(c5c3O)C(=O)C(C)(O/C=C/C(OC)C(C)C(OC(C)=O)C(C)C(O)C(C)C(O)C(C)/C=C/C=C(/C)C(=O)N4)O6)CC2)c1 (stereo not drawn)	< 3.70	5.30	
COc1ccc2c(c1)CC1c3c(cc4c(c3-2)OCO4)CCN1C (stereo not drawn)	< 3.23	5.48	
O=C(c1ccccc1)c1oc2ccc(Br)cc2c1-c1cnn(-c2ccccc2)c1			inactive
CC(C)(C)c1cc(-c2cc(C(C)(C)C)n(-c3ccccc3)n2)nn1-c1ccccc1	< 3.70	4.05	
Nc1ncnc2c1ncn2[C@H]1CC(CO)CO1 (stereo partly drawn)	< 3.18	< 3.18	
CC(C)(C)OC(=O)NC(Cc1ccc(OCc2ccccc2)cc1)C(=O)NC(CCCCNC(=O)OCc1ccccc1)C(=O)O (stereo not drawn) (Boc-Tyr(Bn)-Lys(Cbz)-OH; configuration not given here)	< 3.70	4.12	
NCCCCC1NC(=O)C(CO)NC(=O)C(Cc2cnc[nH]2)NC(=O)CNC(=O)C(Cc2c[nH]c3ccccc23)NC(=O)C(Cc2c[nH]c3ccccc23)NC(=O)C(Cc2ccccc2)NC1=O (stereo not drawn) (cyclo(GHSKFWW); configuration not given here)	< 4.30	< 4.30	
CC(C)=CCC[C@@H](C)C1=CC(=O)C(C)=C(O)C1=O	< 5.70	5.99	
O=C(O)CCCc1ccc(N(CCCl)CCCl)cc1	< 3.70	4.83	
O=S(=O)(O)SCCNCCCCC1CCCCC1	< 3.70	4.99	
Cc1ccc(S)c(C(O)(C(F)(F)F)C(F)(F)F)c1	< 3.70	4.92	
O=C(NN1C(=O)C(Cl)C1c1ccc([N+](=O)[O-])cc1)c1ccccc1O (stereo not drawn)	< 4.98	< 4.98	
CC(C)OP(=O)(OC(C)C)C(C(C)C)N(C)/C(F)=N/C(F)(F)F (stereo not drawn)	< 3.70	< 3.70	
NCCN(CCN(C(=O)Nc1ccccc1)c1ccccc1)C(=O)Nc1ccccc1	< 3.70	4.45	
O=C(Nc1ccn(C2CC(I)C(COC(c3ccccc3)(c3ccccc3)c3ccccc3)O2)c(=O)n1)c1ccccc1 (stereo not drawn)	< 3.70	5.12	
CN1C(NN)=NS(=O)(=O)c2ccccc21	< 3.94	4.02	
COC(=O)/C(=N\NC(=O)c1ccccc1O)C(C#N)c1ccccc1 (stereo not drawn)	< 3.13	5.25	
Cc1cccc(N=C2NC(=O)C(CC(=O)Nc3ccc(Cl)cc3C)S2)c1 (stereo not drawn)	< 4.73	< 4.73	
O=C(O)c1cc2ccccc2c(Br)c1O.O=[N+]([O-])C1CCC(O)C2[N-]CCCC21.[Cu+]	< 3.70	5.47	
CC(=O)C(C(C)=O)=C1CCCC(O)O1 (stereo not drawn)	< 3.70	3.76	
Cc1cc(C2(c3cc(C)c(O)c(Br)c3)OS(=O)(=O)c3ccccc32)cc(Br)c1O	< 3.70	< 3.70	

Structure (SMILES)	pEC50	pIC50	outcome
Cc1cn(C2C[C@H]3ONC[C@H]3O2)c(=O)[nH]c1=O (stereo partly drawn)	< 3.70	< 3.70	
Nn1c(Cc2ccc([N+](=O)[O-])cc2)n[nH]c1=O	< 3.70	< 3.70	
Cn1nc2ccc3nccc(N(CCO)CCO)c3c2n1	< 3.20	4.50	
CCOC(=O)/C(=C/c1cn(C(C)=O)c2ccccc12)P(=O)(OC)OC	< 3.70	4.14	
C=C1[C@H]2O[C@H]2[C@@H](OC(C)=O)[C@@]2(C)[C@@H](OC(C)=O)C[C@@H](OC(=O)CCC)[C@@](C)(O)[C@@H]2[C@@H](OC(C)=O)[C@]2(O)[C@@H](C)C(=O)O[C@H]2[C@H]1Cl	< 3.70	3.76	
O=c1c2cccc3cccc(c4n1CCN=4)c32	< 3.70	4.68	
Cc1cn(CCCCCOC(=O)NC(CCCNC(N)=O)C(=O)O)c(=O)[nH]c1=O (stereo not drawn)	< 3.70	< 3.70	
O=C1CC2(c3ccccc3)CCCCC2=NN1 (stereo not drawn)	< 3.70	< 3.70	
CSc1nc(=S)[nH]c2n[nH]c(C)c12	< 3.70	< 3.70	
COc1ccc(Oc2cc(CC3c4cc(OC)c(OC)cc4CCN3C)c([N+](=O)[O-])cc2OC)cc1OC (stereo not drawn)			inactive
CC1CCC(C(C)C)C(OC(=O)NCn2cc(-c3ccccc3)nn2)C1 (stereo not drawn)	< 3.70	< 3.70	
[N-]=[N+]=NC1CC(n2cc(Cc3ccccc3)c(=O)[nH]c2=O)OC1COC(=O)CCC(=O)O (stereo not drawn)	< 3.25	< 3.25	
N#CCC1(c2ccc(Cl)cc2)NC(=O)c2ccccc21 (stereo not drawn)	< 3.70	3.93	
CCCCCC/C=C\CCCCCCCCCc1c(O)c(OC)cc(O)c1CN(C)C	< 3.70	5.62	
O=[N+]([O-])C(=C(NCc1ccccc1)NCc1ccccc1)C(Cl)=C(Cl)Cl	< 3.70	4.45	
CNc1ncnc2nc(OC)[nH]c12	< 3.98	< 3.98	
O=C(Nc1nc2ncn(CCNCCn3cnc4nc(NC(=O)c5ccccc5)[nH]c(=O)c43)c2c(=O)[nH]1)c1ccccc1	< 4.63	< 4.63	
CC1CCCC2(C1)OCC(O)CO2 (stereo not drawn)			inactive
N#CC(C(=O)CCCC(=O)Nc1ccc(Cl)cc1Cl)c1ccccc1 (stereo not drawn)	< 3.18	< 3.18	
COc1ccccc1NC(=O)C1=C(C)NC(C)=C(C(=O)Nc2ccccc2OC)C1c1ccco1			inactive
CCNc1nnc(-c2ccccc2Nc2ccccc2-c2nnc(NCC)s2)s1	< 3.70	4.79	
Cc1cc(C)nc(NC(=S)Nc2cccc(Cl)c2)c1	< 3.70	4.56	
CCOCc1ccccc1C1(O)c2ccccc2Oc2ccccc21	< 3.70	3.73	
O=c1cn[nH]c2c(Br)cccc12	< 3.32	3.56	
CN(C(=O)C1=CCC2(CC1)OCCO2)c1ccccc1OS(=O)(=O)C(F)(F)F	< 3.70	< 3.70	
CCN(CC)P1CCP(c2ccccc2)CC1 (stereo not drawn)	< 4.43	< 4.43	
COc1ccc(CNC(=O)NCn2cc(-c3ccccc3)nn2)cc1	< 3.70	< 3.70	

Structure (SMILES)	pEC50	pIC50	outcome
COC(=O)c1ccc(Cc2ccc(C(=O)OC)o2)o1	< 3.72	< 3.72	
O=C1C(=Cc2ccc([N+](=O)[O-])o2)C(=O)N(CCc2ccccc2)S(=O)(=O)N1CCc1ccccc1	< 5.28	< 5.28	
Nc1nc(Cl)cc(NCC2(CO)CC(=O)C2)n1	< 3.70	< 3.70	
CN(C)C1=NC(=O)C(c2ccccc2)O1 (stereo not drawn)	< 3.70	< 3.70	
O=C1NC(=O)C2C3C(C(O)(c4ccccc4)c4ccccn4)=CC(/C3=C(\c3ccccc3)c3ccccn3)C12 (stereo not drawn)	< 3.70	4.27	
O=c1cc(O)nc2cn[nH]n12	< 3.63	< 3.63	
C=CCCCCCCCCCOC1C=CC(O)C(CO)O1 (stereo not drawn)	< 3.70	4.45	
CC#N.CC#N.COC(=O)[C@@H]1CN(C(=O)CCc2ccccc2)C(=O)[N-]1.COC(=O)[C@@H]1CN(C(=O)CCc2ccccc2)C(=O)[N-]1.COC(=O)[C@@H]1CN(C(=O)CCc2ccccc2)C(=O)[N-]1.COC(=O)[C@@H]1CN(C(=O)CCc2ccccc2)C(=O)[N-]1.[Rh+2].[Rh+2]	< 3.70	5.36	
COc1ccc2nc(-c3ccccc3)c(=O)[nH]c2c1	< 3.70	4.34	
COC(=O)c1cc(C(c2cc(C(=O)OC)c(OC)c(Br)c2C)C(Cl)(Cl)Cl)c(C)c(Br)c1OC	< 3.70	4.59	
C/C(=N/NC(=S)Nc1ccc([N+](=O)[O-])cc1)c1cccc(/C(C)=N\NC(=S)Nc2ccc([N+](=O)[O-])cc2)n1	< 3.70	6.32	
CC(C)(c1ccccc1)c1ccc(OC#N)cc1	< 4.24	< 4.24	
COC(=O)[C@]1(C)CCC[C@]2(C)c3ccc(C(C)C)cc3C(=O)[C@@H](Br)[C@@H]12	< 3.70	5.07	
CC(C)CCCC(C)C1CCC2C3CC[C@H]4C[C@H](NC(=O)C=C(c5cc(Cl)c(O)c(C(=O)O)c5)c5cc(Cl)c(O)c(C(=O)O)c5)CC[C@]4(C)C3CC[C@]12C (stereo partly drawn)	< 4.00	4.58	
CN1CCCC1=NC#N	< 3.70	< 3.70	
CCCc1ccc(NCc2cc(OC)c(OC)c(OC)c2)cc1	< 4.13	4.50	
C=C1C(OC(=O)C(OC(C)=O)C(c2ccccc2)N(C)C)C[C@H](O)[C@]2(C)C1C[C@@H]1CC(OC(C)=O)C(C)=C([C@@H](OC(C)=O)C2O)C1(C)C (stereo partly drawn)			inactive
CSC(Cc1ccc2c(c1)Sc1ccccc1O2)=[N+]1CCOCC1	< 3.70	4.35	
O=C1/C(=C\c2ccccc2)C2/C(=C\c3ccccc3)C(=O)/C(=C\c3ccccc3)C2/C1=C\c1ccccc1 (stereo not drawn)			inactive
Cc1nc(N)c2nc(Nc3ccccc3)sc2n1	< 3.85	4.18	
CCC1(OC(=O)CN2CCN(CCO)CC2)C(=O)OCc2c1cc1n(c2=O)Cc2cc3ccccc3nc2-1 (stereo not drawn)	< 5.00	7.04	
CC12OC(=O)[C@@]3(O)CCC4C(C[C@H]5O[C@]56CC=CC(=O)[C@]46C)C45OC[C@H]6C(=O)O[C@@H]1C[C@@]6(C)[C@H](C4=O)C23O5 (stereo partly drawn)	< 3.70	6.40	
C[n+]1cccc2ccc3cccnc3c21	< 3.70	5.10	
CCc1c(O)sc2c(c1=O)C(=NCC(C)C)CC(C)(C)N2	< 4.49	< 4.49	
NC(=O)ON=C1CCN(Cc2ccccc2)CC1	< 3.70	< 3.70	
CN(C)c1ncnc2c1ncn2C1C=CC(COS(N)(=O)=O)C1 (stereo not drawn)	< 3.70	< 3.70	
